pIC50: −log10 of the molar value.

One test deals with Jurkat cells. Briefly: Inhibition of proliferation of Jurkat cells ([…]-GLO, 72 hour). It is filed as cell-based. The following applies: Homo sapiens. As for the experimental part:
Representative compounds of the invention were tested at different concentrations (from 10 μM to […]; 0.5 log serial dilutions) for their ability to inhibit the proliferation of Jurkat cells. Cells were grown in RPMI 1640+10% FBS+1% Glutamax supplemented with FBS (Life Technologies) and 100 U.mL^−1 penicillin, 100 μg·mL^−1 streptomycin (Invitrogen) and cultured at 37° C. in a humidified chamber in the presence of 5% CO2. Proliferation assays were conducted over a 72 hour time period. […]-GLO® (Promega Corporation, Madison, Wis. USA) was used to assess the anti-proliferative effects of the compounds following manufacturer's directions and utilizing the reagents supplied with the […]-GLO® kit. In this table, “A” represents an IC50 of less than 500 nM; “B” an IC50 of between 500 nM and 5 μM; and “C” an IC50 of greater than 5 μM.

The target of another test is T1, MLK3 (Homo sapiens, UniProt Q16584).
T1 construct: purchased Life Technologies (Grand Island, N.Y.), LA[…] kinase assay service
The experiment in a line: LANTHASCREEN EU kinase assay, MLK3. The following applies: calculated; read-out: C50 against MLK3. It is filed as binding. How it is done: Compounds of the invention were assayed for activity against a variety of different kinases at Life Technologies™ (Grand Island, N.Y.) using their commercially available ADAPTA® (for CDK7, CDK9/cyclin T1, and IRAK1 kinases), Z′-LYTE® (for CDK1, CDK2, CDK5/p25, CDK5/p35, JNK1 and JNK2 kinases) and LANTHASCREEN EU® (for CDK8, CDK9/cyclin K and MLK3) kinase assay services. […] For CDK7, test compounds were tested at concentrations ranging from 10 μM down to 0.514 nM in a series of 3-fold serial dilutions. Details of these assays, including substrates used for each kinase, are available on the Life Technologies web site (www.lifetechnologies.com/). The results of the assay are shown below in Tables 2A and 2B. […] The co-factors used for each kinase in the assays were as follows CDK1—cyclin B; CDK2—cyclin A; CDK5—p25 or p35 as indicated; CDK7—cyclin H and MNAT1; CDK8—cyclin C; CDK9—cyclin K or cyclin T1 as indicated; IRAK1—Histone H3 (1-20) peptide; JNK1—none required; JNK2—none required; MLK3—none required.

The target in a further test is T2, CDK5/p25 (Homo sapiens, UniProt Q00535).
T2 construct: purchased Life Technologies (Grand Island, N.Y.), Z'-LYTE kinase assay service
T2 sequence (Q00535 whole entry): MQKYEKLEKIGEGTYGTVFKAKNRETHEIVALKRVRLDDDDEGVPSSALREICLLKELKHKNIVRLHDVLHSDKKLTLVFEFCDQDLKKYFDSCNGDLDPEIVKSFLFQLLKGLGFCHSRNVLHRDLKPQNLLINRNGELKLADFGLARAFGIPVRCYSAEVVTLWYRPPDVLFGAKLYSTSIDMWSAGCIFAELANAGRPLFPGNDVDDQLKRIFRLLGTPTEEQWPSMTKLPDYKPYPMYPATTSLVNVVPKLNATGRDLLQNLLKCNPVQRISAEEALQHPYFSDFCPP
T2 sequence (Q15078 99-307 partner limits assumed): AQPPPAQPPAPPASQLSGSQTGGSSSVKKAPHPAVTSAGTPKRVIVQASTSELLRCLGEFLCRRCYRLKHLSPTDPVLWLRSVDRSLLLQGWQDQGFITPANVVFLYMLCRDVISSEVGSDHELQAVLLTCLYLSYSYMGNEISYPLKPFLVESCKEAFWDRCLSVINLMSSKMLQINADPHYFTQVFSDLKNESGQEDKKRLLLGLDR
The experiment in a line: Z'-LYTE kinase assay, CDK5/p25. It counts as biochemical. How it is done: (§1) Compounds of the invention were assayed for activity against a variety of different kinases at Life Technologies™ (Grand Island, N.Y.) using their commercially available ADAPTA® (for CDK7, CDK9/cyclin T1, and IRAK1 kinases), Z′-LYTE® (for CDK1, CDK2, CDK5/p25, CDK5/p35, JNK1 and JNK2 kinases) and LANTHASCREEN EU® (for CDK8, CDK9/cyclin K and MLK3) kinase assay services. Test compounds were tested at 100 nM and 1 μM final concentrations in 1% DMSO against all kinases except CDK7. For CDK7, test compounds were tested at concentrations ranging from 10 μM down to 0.514 nM in a series of 3-fold serial dilutions. Details of these assays, including substrates used for each kinase, are available on the Life Technologies web site (www.lifetechnologies.com/). The results of the assay are shown below in Tables 2A and 2B. […] The co-factors used for each kinase in the assays were as follows CDK1—cyclin B; CDK2—cyclin A; CDK5—p25 or p35 as indicated; CDK7—cyclin H and MNAT1; CDK8—cyclin C; CDK9—cyclin K or cyclin T1 as indicated; IRAK1—Histone H3 (1-20) peptide; JNK1—none required; JNK2—none required; MLK3—none required.

Another test addresses T3, JNK1 (Homo sapiens, UniProt P45983).
T3 construct: purchased Life Technologies (Grand Island, N.Y.), Z'-LYTE kinase assay service
Briefly: Z'-LYTE kinase assay, JNK1. It is filed as biochemical. As for the experimental part: as §1

Another test addresses T4, CDK9/cyclin T1 (Homo sapiens, UniProt P50750).
T4 construct: purchased Life Technologies (Grand Island, N.Y.), ADAPTA kinase assay service
Briefly: ADAPTA kinase assay, CDK9/cyclin T1. It is filed as biochemical. Particulars: cyclin T1 co-factor. How it is done: as §1

The target of the next test is T5, JNK2 (Homo sapiens, UniProt P45984).
T5 construct: purchased Life Technologies (Grand Island, N.Y.), Z'-LYTE kinase assay service
T5 sequence (P45984 whole entry): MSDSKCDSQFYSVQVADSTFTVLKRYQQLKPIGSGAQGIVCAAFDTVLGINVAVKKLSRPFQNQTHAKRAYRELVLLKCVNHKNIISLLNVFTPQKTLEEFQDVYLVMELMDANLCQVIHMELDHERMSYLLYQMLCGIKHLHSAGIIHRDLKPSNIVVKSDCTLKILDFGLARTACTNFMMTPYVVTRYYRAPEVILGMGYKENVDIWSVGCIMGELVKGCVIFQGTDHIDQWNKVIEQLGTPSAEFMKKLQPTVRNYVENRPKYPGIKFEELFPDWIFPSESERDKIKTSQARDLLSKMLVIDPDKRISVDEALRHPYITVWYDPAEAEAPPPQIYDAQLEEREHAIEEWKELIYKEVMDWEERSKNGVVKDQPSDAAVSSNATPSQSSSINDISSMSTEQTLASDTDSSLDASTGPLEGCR
Briefly: Z'-LYTE kinase assay, JNK2. It counts as biochemical. As for the experimental part: as §1

The next test addresses T6, CDK1 (Homo sapiens, UniProt P06493).
T6 construct: purchased Life Technologies (Grand Island, N.Y.), Z'-LYTE kinase assay service
The experiment in a line: Z'-LYTE kinase assay, CDK1. It is filed as biochemical. Particulars: cyclin B co-factor. How it is done: as §1

A further test addresses T7, CDK5/p35 (Homo sapiens, UniProt Q00535).
T7 construct: purchased Life Technologies (Grand Island, N.Y.), Z'-LYTE kinase assay service
The experiment in a line: Z'-LYTE kinase assay, CDK5/p35. It counts as biochemical. The following applies: p35 co-factor. How it is done:
as §1

A further test has as its target T8, CDK2 (Homo sapiens, UniProt P24941).
T8 construct: purchased Life Technologies (Grand Island, N.Y.), Z'-LYTE kinase assay service
Briefly: Z'-LYTE kinase assay, CDK2. It is filed as biochemical. Particulars: cyclin A co-factor. As for the experimental part: as §1

In another test the target is T9, CDK7 (Homo sapiens, UniProt P50613).
T9 construct: purchased Life Technologies (Grand Island, N.Y.), ADAPTA kinase assay service
T9 sequence (P50613 whole entry): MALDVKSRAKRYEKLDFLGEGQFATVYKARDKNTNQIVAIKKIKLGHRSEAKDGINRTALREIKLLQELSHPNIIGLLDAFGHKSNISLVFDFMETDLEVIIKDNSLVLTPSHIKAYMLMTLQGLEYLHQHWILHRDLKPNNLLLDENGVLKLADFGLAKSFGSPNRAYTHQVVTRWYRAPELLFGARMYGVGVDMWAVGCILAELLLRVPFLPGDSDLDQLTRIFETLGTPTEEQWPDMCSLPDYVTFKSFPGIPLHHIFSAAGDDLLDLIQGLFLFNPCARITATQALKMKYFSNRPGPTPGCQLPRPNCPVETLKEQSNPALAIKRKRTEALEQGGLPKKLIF
T9 sequence (P51946 whole entry partner): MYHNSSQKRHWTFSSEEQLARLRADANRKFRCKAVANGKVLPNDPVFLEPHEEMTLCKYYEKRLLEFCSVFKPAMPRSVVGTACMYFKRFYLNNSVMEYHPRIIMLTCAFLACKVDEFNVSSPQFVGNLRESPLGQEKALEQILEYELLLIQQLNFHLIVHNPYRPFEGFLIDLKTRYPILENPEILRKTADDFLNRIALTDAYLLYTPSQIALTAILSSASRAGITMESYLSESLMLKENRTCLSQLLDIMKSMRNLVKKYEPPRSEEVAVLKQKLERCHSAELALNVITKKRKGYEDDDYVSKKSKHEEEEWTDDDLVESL
T9 sequence (P51948 whole entry partner): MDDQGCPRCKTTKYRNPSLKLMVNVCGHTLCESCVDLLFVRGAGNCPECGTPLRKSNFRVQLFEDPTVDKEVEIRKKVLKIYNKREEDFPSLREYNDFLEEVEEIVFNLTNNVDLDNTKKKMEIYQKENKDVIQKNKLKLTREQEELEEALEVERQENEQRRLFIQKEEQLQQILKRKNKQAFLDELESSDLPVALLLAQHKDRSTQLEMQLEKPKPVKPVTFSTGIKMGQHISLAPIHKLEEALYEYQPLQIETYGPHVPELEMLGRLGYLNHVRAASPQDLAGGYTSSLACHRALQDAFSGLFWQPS
Briefly: ADAPTA kinase assay, CDK7 (Life Technologies). It counts as biochemical. The following applies: co-factors cyclin H and MNAT1; 10 μM down to 0.514 nM, 3-fold serial dilutions; read-out: CDK7 calculated IC50.

The target of a further test is T10, CDK8 (Homo sapiens, UniProt P49336).
T10 construct: purchased Life Technologies (Grand Island, N.Y.), LA[…] kinase assay service
T10 sequence (P49336 whole entry): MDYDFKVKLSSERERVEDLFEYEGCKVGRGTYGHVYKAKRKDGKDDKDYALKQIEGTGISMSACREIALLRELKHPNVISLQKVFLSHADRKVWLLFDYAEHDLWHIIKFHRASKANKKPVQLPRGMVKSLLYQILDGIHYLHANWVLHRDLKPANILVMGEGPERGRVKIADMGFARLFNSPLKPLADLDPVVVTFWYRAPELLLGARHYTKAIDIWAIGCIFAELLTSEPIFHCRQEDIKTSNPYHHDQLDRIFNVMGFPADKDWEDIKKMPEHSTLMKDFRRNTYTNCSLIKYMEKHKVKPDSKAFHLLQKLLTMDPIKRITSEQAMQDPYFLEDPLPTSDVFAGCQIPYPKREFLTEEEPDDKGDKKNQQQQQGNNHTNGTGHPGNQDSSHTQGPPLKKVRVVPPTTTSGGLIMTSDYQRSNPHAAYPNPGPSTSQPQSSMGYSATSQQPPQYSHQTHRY
T10 sequence (P24863 whole entry partner): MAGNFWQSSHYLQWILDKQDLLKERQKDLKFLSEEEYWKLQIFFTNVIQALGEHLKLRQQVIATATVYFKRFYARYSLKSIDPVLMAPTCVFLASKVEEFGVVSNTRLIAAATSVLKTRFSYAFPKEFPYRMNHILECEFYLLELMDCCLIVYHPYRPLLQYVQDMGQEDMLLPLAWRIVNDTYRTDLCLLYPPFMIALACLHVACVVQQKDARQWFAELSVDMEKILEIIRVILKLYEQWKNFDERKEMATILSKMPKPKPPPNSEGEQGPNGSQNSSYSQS
Briefly: LANTHASCREEN EU kinase assay, CDK8. It counts as binding. Particulars: cyclin C co-factor. How it is done:
as §1
In general terms: In TR-FRET formats the signal depends on donor and acceptor labels being close together.

In another test the target is T11, CDK9/cyclin K (Homo sapiens, UniProt P50750).
T11 construct: purchased Life Technologies (Grand Island, N.Y.), LANTHASCREEN EU kinase assay service
The experiment in a line: LANTHASCREEN EU kinase assay, CDK9/cyclin K. It counts as binding. The following applies: cyclin K co-factor. As for the experimental part:
as §1

T7 sequence (Q00535 whole entry): as the sequence (Q00535 whole entry) above
T7 sequence (Q15078 whole entry partner): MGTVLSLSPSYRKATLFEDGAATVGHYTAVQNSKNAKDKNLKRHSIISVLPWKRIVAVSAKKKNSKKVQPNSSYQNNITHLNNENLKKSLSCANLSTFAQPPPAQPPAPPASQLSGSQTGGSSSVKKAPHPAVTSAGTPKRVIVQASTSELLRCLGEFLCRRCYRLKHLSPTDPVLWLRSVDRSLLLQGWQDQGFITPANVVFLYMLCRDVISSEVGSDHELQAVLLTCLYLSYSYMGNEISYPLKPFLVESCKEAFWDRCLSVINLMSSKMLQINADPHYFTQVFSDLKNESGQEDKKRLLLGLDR
T6 sequence (P06493 whole entry): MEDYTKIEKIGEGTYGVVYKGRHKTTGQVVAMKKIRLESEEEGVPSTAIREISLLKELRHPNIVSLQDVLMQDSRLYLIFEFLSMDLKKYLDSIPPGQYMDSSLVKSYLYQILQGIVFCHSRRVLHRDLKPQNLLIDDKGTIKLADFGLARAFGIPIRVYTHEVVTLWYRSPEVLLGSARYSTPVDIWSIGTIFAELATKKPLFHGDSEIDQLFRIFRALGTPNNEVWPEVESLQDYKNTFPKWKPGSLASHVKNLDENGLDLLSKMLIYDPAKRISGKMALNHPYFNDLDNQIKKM
T6 sequence (P14635 whole entry partner): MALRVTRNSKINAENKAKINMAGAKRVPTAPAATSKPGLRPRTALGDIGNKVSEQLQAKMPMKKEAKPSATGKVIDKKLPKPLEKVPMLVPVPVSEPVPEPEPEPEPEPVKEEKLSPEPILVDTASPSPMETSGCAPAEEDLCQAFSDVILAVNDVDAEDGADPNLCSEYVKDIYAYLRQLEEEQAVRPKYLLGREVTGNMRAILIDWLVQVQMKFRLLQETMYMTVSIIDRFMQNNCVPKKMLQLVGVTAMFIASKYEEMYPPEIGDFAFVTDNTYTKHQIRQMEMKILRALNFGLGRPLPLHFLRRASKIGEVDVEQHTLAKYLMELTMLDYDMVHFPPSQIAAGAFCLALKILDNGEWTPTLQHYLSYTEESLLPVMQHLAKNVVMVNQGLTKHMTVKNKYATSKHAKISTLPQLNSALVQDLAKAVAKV
T3 sequence (P45983 whole entry): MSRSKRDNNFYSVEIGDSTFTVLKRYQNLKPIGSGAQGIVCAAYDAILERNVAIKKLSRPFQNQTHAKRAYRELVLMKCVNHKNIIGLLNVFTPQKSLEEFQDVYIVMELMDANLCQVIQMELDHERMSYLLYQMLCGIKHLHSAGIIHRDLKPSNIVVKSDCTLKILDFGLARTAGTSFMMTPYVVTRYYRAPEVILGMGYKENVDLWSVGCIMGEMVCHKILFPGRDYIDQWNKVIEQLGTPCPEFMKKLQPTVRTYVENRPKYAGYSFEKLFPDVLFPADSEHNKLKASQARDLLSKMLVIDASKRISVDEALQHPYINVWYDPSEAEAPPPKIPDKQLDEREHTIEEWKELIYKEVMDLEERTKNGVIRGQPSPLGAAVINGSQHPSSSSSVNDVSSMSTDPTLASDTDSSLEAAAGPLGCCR
Method for CDK7: Test compounds were tested at 100 nM and 1 μM final concentrations in 1% DMSO against all kinases except CDK7. For CDK7, test compounds were tested at concentrations ranging from 10 μM down to 0.514 nM in a series of 3-fold serial dilutions. […] The co-factors used for each kinase in the assays were as follows CDK1—cyclin B; CDK2—cyclin A; CDK5—p25 or p35 as indicated; CDK7—cyclin H and MNAT1; CDK8—cyclin C; CDK9—cyclin K or cyclin T1 as indicated; IRAK1—Histone H3 (1-20) peptide; JNK1—none required; JNK2—none required; MLK3—none required.

Regarding `CN(C)C/C=C/C(=O)Nc1ccc(C(=O)N2CCCC(Nc3ncc(Cl)c(-c4c[nH]c5ccccc45)n3)C2)cc1` (stereo not drawn) [Compound 100, (E)-N-(4-(3-(5-chloro-4-(1H-indol-3-yl)pyrimidin-2-ylamino)piperidine-1-carbonyl)phenyl)-4-(dimethylamino)but-2-enamide], the pIC50 with Jurkat cells was above 6.30; at MLK3 it was 5.49; on CDK5/p25 (p25 as co-factor, calculated, read-out: IC50 against CDK5), 5.52.

For orientation: inhibition means the share of the control response that was lost under treatment. Low readings indicate a weak effect, high ones a strong effect. Take `CN(C)C/C=C/C(=O)Nc1ccc(C(=O)N2CCCC(CNc3ncc(Cl)c(-c4c[nH]c5ccccc45)n3)C2)cc1` (stereo not drawn) [Compound 101, (E)-N-(4-(3-((5-chloro-4-(1H-indol-3-yl)pyrimidin-2-ylamino)methyl)piperidine-1-carbonyl)phenyl)-4-(dimethylamino)but-2-enamide]: the inhibition at 0.1 µM was 50 to 70% on JNK1 (compound tested at 100 nM); below 50% at CDK9/cyclin T1 (compound tested at 100 nM); below 50% against JNK2 (compound tested at 100 nM); below 50% against CDK1 (compound tested at 100 nM); below 50% on CDK5/p35 (compound tested at 100 nM); below 50% on CDK2 (compound tested at 100 nM). Further, the inhibition at 0.1 µM on CDK5/p25 (compound tested at 100 nM, p25 co-factor) was below 50%; against CDK8 (compound tested at 100 nM) it was below 50%; at CDK9/cyclin K (compound tested at 100 nM), below 50%. Further, the inhibition at 1 µM against JNK1 (compound tested at 1 μM) is above 70%; on CDK9/cyclin T1 (compound tested at 1 μM), below 50%; against JNK2 (compound tested at 1 μM), above 70%; on CDK1 (compound tested at 1 μM) it was below 50%; against CDK5/p35 (compound tested at 1 μM) it was below 50%; on CDK2 (compound tested at 1 μM), below 50%. Besides, the inhibition at 1 µM against CDK5/p25 (compound tested at 1 μM, p25 co-factor) is below 50%; on CDK8 (compound tested at 1 μM), below 50%; at CDK9/cyclin K (compound tested at 1 μM), below 50%. Further, the pIC50 was 5.30 to 6.30 with Jurkat cells and 6.00 to 7.00 at CDK7.

For the compound `CN(C)C/C=C/C(=O)Nc1ccc(NC(=O)N2CCCC(Nc3ncc(Cl)c(-c4c[nH]c5ccccc45)n3)C2)cc1` (stereo not drawn) [Compound 102], the pIC50 on CDK7 was 6.00 to 7.00.

These data come from patent US11040957B2, “Heteroaromatic compounds useful for the treatment of proliferative diseases” (Syros Pharmaceuticals, Inc., priority 2013, dated 2021).
